Assay results taken from patent publication US20220235043A1, “SUBSTITUTED SULFONAMIDE PYRROLOPYRIDINES AS JAK INHIBITORS” (ACLARIS THERAPEUTICS, INC., priority 2019, published 2022).

Assays:
JAK1 = molecular target: T1, JAK1 (Homo sapiens, UniProt P23458); assay: JAK1 enzyme activity assay (Thermo Fisher Selectscreen, Z-lyte); format: biochemical; conditions: read-out: JAK1 Inhibition IC50
T1 construct: purchased Thermo Fisher Scientific (SelectScreen service)
Method: (§1) The inhibitory potency of candidate compounds of JAK1, JAK2, and Tyk-2 was done at Thermo Fisher Scientific in their Selectscreen using a Z-lyte assay. Following are the assay details for each enzyme.
JAK1: The 2×JAK-enzyme/Tyr 06 mixture is prepared in 50 mM HEPES pH 6.5, 0.01% BRIJ-35, 10 mM MgCl2, 1 mM EGTA, 0.02% NaN3. The final 10 μL of the Kinase Reaction consists of 21.2-91.5 ng JAK1 and 2 μM Tyr 06 in 50 mM HEPES pH 7.0, 0.01% BRIJ-35, 10 mM MgCl2, 1 mM EGTA, 0.01% NaN3. After the one hour Kinase Reaction incubation, 5 μL of a 1:128 dilution of Development Reagent is added.
(§2) Data reduction for JAK1, JAK2 and TYK2 is done the same, independent of the enzyme run. In summary, background signal is defined in the absence of enzyme and uninhibited signal is defined in the presence of vehicle (2% DMSO) alone. Compounds were evaluated in an 11 point dose-response ranging from […] to 0.34 nM. IC50 values of compounds are determined using a 4 parameter logistical fit of emission ratio as a function of the concentration of compound.

JAK2 = molecular target: T2, JAK2 (Homo sapiens, UniProt O60674); assay: JAK2 enzyme activity assay (Thermo Fisher Selectscreen, Z-lyte); format: biochemical; conditions: read-out: JAK2 Inhibition IC50
T2 construct: purchased Thermo Fisher Scientific (SelectScreen service)
Method: as §1
JAK2: The 2×JAK2/Tyr 06 mixture is prepared in 50 mM HEPES pH 7.5, 0.01% BRIJ-35, 10 mM MgCl2, 1 mM EGTA. The final 10 μL Kinase Reaction consists of 0.12-0.5 ng JAK2 and 2 μM Tyr 06 in 50 mM HEPES pH 7.5, 0.01% BRIJ-35, 10 mM MgCl2, 1 mM EGTA. After the one hour Kinase Reaction incubation, 5 μL of a 1:128 dilution of Development Reagent A is added.
as §2

JAK3 (a.a. 781-1124) = molecular target: T3, JAK3 (a.a. 781-1124) (Homo sapiens, UniProt P52333); assay: JAK3 enzyme activity assay (SRCtide phosphorylation, Caliper); format: biochemical; conditions: 1 uM ATP; read-out: JAK3 Inhibition IC50
T3 construct: JAK3 (a.a. 781-1124, ThermoFisher); purchased ThermoFisher
Method: The activity of JAK3 (a.a. 781-1124, ThermoFisher) was quantified by measuring the phosphorylation of SRCtide (FAM-GEEPLYWSFPAKKK-NH2). Kinase reactions were run in a 384-well Greiner plate with 2% final DMSO concentration under the buffer conditions of 20 mM HEPES, pH 7.5, 10 mM MgCl2, 0.01% BSA, and 0.0005% Tween-20. The kinase reaction components were 2.5 nM JAK3, 1 μM SRCtide peptide and 1 uM ATP. Examples were tested in dose-response starting at […] (11 concentrations, 3-fold serial dilution, duplicate reactions). The reactions were incubated at room temperature for 40 minutes, then stopped by adding a 1:1 volume of 30 mM EDTA in 20 mM HEPES, pH 7.5 (15 mM EDTA final). After the reaction was stopped, the phosphorylated and unphosphorylated peptides were separated and quantified using a Caliper LC3000/EZ-Reader system and HTS Well Analyzer Software (Caliper, A PerkinElmer Company, Hopkinton, Mass.). GraFit (Erithacus Software Ltd., Horley, U.K.) was used to calculate inhibitor potency by fitting dose-response data to the 4-parameter logistical IC50 equation.

Tyk-2 = molecular target: T4, Tyk-2 (Homo sapiens, UniProt P29597); assay: Tyk-2 enzyme activity assay (Thermo Fisher Selectscreen, Z-lyte); format: biochemical; conditions: read-out: Tyk-2 Inhibition IC50
T4 construct: purchased Thermo Fisher Scientific (SelectScreen service)
Method: as §1
TYK2: The 2×TYK2/Tyr 03 mixture is prepared in 50 mM HEPES pH 6.5, 0.01% BRIJ-35, 10 mM MgCl2, 1 mM EGTA, 0.02% NaN3. The final 10 μL Kinase Reaction consists of 3.75-15 ng TYK2 and 2 μM Tyr 03 in 50 mM HEPES pH 7.0, 0.01% BRIJ-35, 10 mM MgCl2, 1 mM EGTA, 0.01% NaN3. After the one hour KinaseReaction incubation, 5 μL of a 1:4096 dilution of Development Reagent A is added.
as §2

[1] = tested on: IL-2 stimulated STAT5 phosphorylation on Tyr694 (JAK1/3); assay: JAK1/3 cellular target modulation: IL-2 stimulated phospho-STAT5 in human PBMC; format: cell-based; conditions: IL-2 25 ng/ml, read-out: IL2-STAT5 IC50
Text: (§3) Target modulation was based upon the ability of a compound to inhibit JAK isoform specific phosphorylation of selected substrates. IL-2 stimulated STAT5 phosphorylation on Tyr694 was used to assess JAK1/3 compound selectivity. GM-CSF stimulated STAT5 phosphorylation on Tyr694 was used to assess JAK2 compound selectivity. IFNγ stimulated STAT1 phosphorylation on Tyr701 was used to assess JAK1/2 compound selectivity. IL-12 stimulated STAT4 phosphorylation on Tyr693 was used to assess JAK2/TYK2 compound selectivity. For all four assays, human PBMC from frozen stocks were thawed, pelleted, resuspended in complete media (90% RPMI, 10% heat inactivated FBS, 10 mM HEPES, 47 μM 2-ME, pen/strep) and placed in wells of a 96 well V-bottom plate at 200,000 per well in 120 μl complete media. Compounds were added as 15 μl per well of 10× working stock solutions in complete media with 1% DMSO (or medium with 1% DMSO for controls) and placed on a plate shaker in a 37° C. incubator with 5% CO2 for 1 hour with gentle shaking (setting of 3). Stimulation used the addition of soluble cytokines. For the JAK1/3 phospho-STAT5 assay, 15 μl of 10× working stock recombinant human IL-2 was added to a final concentration of 25 ng/ml. For the JAK2 phospho-STAT5 assay, 15 μl of 10× working stock recombinant human GM-CSF was added to a final concentration of 5 ng/ml. For the JAK1/2 phospho-STAT1 assay, 15 μl of 10× working stock of recombinant human IFNγ was added to a final concentration of 10 ng/ml. For the JAK2/TYK2 phospho-STAT4 assay, 15 μl of 10× working stock of recombinant human IL-12 was added to a final concentration of 1.7 ng/ml. Plates were then placed back on the plate shaker in the incubator for an additional 5, 5, 10, and 25 minutes respectively upon which the plates were removed from the incubator, sealed with a plate sealer and the cells pelleted at 400×g for 5 minutes. After pelleting, the media was removed by aspiration and the cells were lysed in assay specific cell lysis buffer. The levels of phospho-STAT5 were determined using a Phospho (Tyr694)STAT5a,b Whole Cell Lysate kit from Meso Scale Discovery. Levels of phospho-STAT1 were determined using a CST-PathScan Phospho-STAT1 (Tyr701) Sandwich ELISA kit. Levels of phospho-STAT4 were determined using a Phospho-STAT4 (Tyr693) Whole Cell Lysate kit from Meso Scale Discovery.

[2] = tested on: IFNγ stimulated STAT1 phosphorylation on Tyr701 (JAK1/2); assay: JAK1/2 cellular target modulation: IFNγ stimulated phospho-STAT1 in human PBMC; format: cell-based; conditions: IFNγ 10 ng/ml, read-out: Infγ-STAT1 IC50
Text: as §3

[3] = tested on: IL-12 stimulated STAT4 phosphorylation on Tyr693 (JAK2/TYK2); assay: JAK2/TYK2 cellular target modulation: IL-12 stimulated phospho-STAT4 in human PBMC; format: cell-based; conditions: IL-12 1.7 ng/ml, read-out: IL12-STAT4 IC50
Text: as §3

T2 sequence (O60674 whole entry): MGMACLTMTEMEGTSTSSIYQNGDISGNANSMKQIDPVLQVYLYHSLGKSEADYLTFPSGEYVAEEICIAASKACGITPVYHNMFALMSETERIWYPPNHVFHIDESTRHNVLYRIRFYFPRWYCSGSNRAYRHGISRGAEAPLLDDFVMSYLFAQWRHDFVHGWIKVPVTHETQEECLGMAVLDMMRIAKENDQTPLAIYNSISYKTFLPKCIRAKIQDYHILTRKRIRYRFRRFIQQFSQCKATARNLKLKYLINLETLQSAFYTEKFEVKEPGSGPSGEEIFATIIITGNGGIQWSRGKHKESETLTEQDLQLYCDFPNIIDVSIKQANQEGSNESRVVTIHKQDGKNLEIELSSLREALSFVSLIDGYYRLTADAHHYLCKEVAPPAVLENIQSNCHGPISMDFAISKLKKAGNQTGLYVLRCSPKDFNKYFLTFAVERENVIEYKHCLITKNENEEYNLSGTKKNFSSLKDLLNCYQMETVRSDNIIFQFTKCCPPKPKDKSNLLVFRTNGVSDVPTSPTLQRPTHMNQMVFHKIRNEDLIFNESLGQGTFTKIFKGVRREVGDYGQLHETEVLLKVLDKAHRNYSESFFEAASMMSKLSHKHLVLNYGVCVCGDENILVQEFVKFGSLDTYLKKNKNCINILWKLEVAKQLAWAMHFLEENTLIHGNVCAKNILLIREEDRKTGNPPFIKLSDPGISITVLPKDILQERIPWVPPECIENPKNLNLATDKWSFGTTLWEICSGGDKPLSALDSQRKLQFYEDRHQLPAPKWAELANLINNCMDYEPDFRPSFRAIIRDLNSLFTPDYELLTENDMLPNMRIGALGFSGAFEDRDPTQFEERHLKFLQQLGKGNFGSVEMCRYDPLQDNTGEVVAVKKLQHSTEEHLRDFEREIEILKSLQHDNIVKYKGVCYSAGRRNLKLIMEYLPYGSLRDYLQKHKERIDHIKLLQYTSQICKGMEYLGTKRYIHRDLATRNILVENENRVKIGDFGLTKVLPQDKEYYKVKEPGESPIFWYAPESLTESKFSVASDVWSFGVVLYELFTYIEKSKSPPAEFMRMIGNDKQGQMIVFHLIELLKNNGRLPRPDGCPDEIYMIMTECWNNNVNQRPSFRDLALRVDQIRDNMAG
T1 sequence (P23458 whole entry): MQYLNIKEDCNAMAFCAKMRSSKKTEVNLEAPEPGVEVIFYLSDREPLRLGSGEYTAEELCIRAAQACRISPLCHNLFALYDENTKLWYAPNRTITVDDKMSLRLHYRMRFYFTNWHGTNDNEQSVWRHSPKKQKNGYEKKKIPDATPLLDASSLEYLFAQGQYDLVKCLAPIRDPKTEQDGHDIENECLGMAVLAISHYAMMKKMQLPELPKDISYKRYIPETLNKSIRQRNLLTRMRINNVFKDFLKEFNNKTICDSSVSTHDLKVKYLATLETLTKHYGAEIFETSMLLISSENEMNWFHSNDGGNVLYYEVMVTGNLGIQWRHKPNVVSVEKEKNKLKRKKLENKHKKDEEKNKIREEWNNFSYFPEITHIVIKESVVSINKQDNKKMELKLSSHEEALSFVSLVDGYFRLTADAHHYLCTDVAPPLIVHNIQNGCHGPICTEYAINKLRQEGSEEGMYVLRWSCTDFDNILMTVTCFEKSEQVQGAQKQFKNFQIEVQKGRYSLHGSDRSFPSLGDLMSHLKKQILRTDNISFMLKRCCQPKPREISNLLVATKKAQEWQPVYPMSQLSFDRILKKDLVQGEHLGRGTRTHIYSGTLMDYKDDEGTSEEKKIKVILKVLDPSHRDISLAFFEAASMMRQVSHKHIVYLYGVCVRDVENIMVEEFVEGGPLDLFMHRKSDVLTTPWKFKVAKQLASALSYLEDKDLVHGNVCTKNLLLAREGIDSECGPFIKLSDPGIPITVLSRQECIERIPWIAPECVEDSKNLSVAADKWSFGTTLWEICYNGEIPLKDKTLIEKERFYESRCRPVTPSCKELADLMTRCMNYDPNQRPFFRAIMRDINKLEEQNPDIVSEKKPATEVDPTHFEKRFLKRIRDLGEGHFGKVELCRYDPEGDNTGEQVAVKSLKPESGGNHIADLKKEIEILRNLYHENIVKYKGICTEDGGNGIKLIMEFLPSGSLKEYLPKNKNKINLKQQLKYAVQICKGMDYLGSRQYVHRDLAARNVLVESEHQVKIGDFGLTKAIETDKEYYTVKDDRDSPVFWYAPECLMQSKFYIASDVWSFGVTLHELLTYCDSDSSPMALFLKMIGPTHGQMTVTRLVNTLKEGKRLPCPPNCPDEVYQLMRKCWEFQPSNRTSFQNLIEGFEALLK
T3 sequence (P52333 781-1124): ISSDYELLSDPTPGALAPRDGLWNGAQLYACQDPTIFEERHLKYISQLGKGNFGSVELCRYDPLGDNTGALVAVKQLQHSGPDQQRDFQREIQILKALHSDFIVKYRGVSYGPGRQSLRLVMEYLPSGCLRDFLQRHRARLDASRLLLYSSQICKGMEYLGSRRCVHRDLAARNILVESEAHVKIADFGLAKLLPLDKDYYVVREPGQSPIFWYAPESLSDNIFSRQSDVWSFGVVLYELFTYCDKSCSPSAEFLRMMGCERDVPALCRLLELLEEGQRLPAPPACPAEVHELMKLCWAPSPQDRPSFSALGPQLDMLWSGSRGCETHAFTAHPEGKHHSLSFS
T4 sequence (P29597 whole entry): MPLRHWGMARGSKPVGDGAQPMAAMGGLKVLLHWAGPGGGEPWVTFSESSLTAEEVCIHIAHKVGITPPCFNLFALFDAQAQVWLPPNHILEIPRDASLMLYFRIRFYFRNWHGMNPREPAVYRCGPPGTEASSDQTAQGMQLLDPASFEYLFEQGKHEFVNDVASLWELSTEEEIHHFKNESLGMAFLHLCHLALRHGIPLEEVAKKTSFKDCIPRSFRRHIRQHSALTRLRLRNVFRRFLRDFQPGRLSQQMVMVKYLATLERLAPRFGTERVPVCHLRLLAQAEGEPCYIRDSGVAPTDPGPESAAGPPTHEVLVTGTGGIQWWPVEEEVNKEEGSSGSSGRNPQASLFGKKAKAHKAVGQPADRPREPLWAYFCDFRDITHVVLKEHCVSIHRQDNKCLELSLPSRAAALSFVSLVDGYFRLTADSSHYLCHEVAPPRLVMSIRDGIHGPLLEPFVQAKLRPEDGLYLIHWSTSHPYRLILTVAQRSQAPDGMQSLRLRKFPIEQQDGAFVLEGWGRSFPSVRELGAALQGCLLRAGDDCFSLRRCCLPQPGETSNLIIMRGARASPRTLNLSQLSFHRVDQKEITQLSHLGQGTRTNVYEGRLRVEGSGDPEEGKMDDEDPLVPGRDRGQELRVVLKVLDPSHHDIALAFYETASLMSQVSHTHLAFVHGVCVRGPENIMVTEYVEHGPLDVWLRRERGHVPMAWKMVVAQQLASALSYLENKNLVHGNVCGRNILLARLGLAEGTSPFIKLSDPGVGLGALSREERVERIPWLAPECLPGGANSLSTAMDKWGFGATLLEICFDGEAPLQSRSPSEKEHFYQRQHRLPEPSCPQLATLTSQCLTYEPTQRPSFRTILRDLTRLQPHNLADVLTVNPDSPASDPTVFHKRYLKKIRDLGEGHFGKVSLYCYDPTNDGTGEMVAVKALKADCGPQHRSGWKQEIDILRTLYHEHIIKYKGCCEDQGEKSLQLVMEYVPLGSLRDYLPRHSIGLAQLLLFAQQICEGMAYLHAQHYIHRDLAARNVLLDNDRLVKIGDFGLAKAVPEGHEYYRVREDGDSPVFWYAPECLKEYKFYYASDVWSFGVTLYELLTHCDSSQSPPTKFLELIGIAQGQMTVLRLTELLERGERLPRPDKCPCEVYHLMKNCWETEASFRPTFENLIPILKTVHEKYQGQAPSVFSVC

Row | IC50 (JAK1) | IC50 (JAK2) | IC50 (JAK3 (a.a. 781-1124)) | IC50 (Tyk-2) | IC50 [1] | IC50 [2] | IC50 [3] | Structure (SMILES)
1 | ≤ 10 nM | ≤ 10 nM | 10 to 100 nM | 10 to 100 nM | 100 to 1000 nM | 100 to 1000 nM | > 1000 nM | CNC(=O)c1csc(-c2cnc3[nH]ccc3c2N[C@H]2C[C@@H](NS(=O)(=O)c3cccc(C#N)c3)C2)n1 [Example 21, 2-(4-(((1s,3s)-3-((3-cyanophenyl)sulfonamido)cyclobutyl)amino)-1H-pyrrolo[2,3-b]pyridin-5-yl)-N-methylthiazole-4-carboxamide]
2 | ≤ 10 nM | ≤ 10 nM | 10 to 100 nM | 10 to 100 nM | 100 to 1000 nM | 100 to 1000 nM | > 1000 nM | N#Cc1ccnc(S(=O)(=O)N[C@H]2C[C@H](Nc3c(-c4ccncn4)cnc4[nH]ccc34)C2)c1 [Example 63, 4-cyano-N-((1r,3r)-3-((5-(pyrimidin-4-yl)-1H-pyrrolo[2,3-b]pyridin-4-yl)amino)cyclobutyl)pyridine-2-sulfonamide]
3 | ≤ 10 nM | ≤ 10 nM | ≤ 10 nM | ≤ 10 nM | ≤ 100 nM | 100 to 1000 nM | > 1000 nM | N#Cc1cccc(S(=O)(=O)N[C@H]2C[C@@H](Nc3c(-c4ccncn4)cnc4[nH]ccc34)C2)c1 [Example 64, 3-cyano-N-((1s,3s)-3-((5-(pyrimidin-4-yl)-1H-pyrrolo[2,3-b]pyridin-4-yl)amino)cyclobutyl)benzenesulfonamide]
4 | ≤ 10 nM | 10 to 100 nM | 100 to 1000 nM | 10 to 100 nM | 100 to 1000 nM | > 1000 nM | > 1000 nM | CNC(=O)c1ccnc(-c2cnc3[nH]ccc3c2N[C@H]2C[C@@H](NS(=O)(=O)c3cccc(C#N)c3)C2)c1 [Example 66, 2-(4-(((1s,3s)-3-((3-cyanophenyl)sulfonamido)cyclobutyl)amino)-1H-pyrrolo[2,3-b]pyridin-5-yl)-N-methylisonicotinamide]
5 | ≤ 10 nM | ≤ 10 nM | ≤ 10 nM | ≤ 10 nM | ≤ 100 nM | 100 to 1000 nM | 100 to 1000 nM | N#Cc1cccc(S(=O)(=O)N[C@H]2C[C@@H](Nc3c(-c4nccs4)cnc4[nH]ccc34)C2)c1 [Example 69, 3-cyano-N-((1s,3s)-3-((5-(thiazol-2-yl)-1H-pyrrolo[2,3-b]pyridin-4-yl)amino)cyclobutyl)benzenesulfonamide]
6 | ≤ 10 nM | 10 to 100 nM | 10 to 100 nM | 10 to 100 nM | ≤ 100 nM | 100 to 1000 nM | > 1000 nM | CCCS(=O)(=O)N[C@H]1C[C@@H](Nc2c(-c3nccs3)cnc3[nH]ccc23)C1 [Example 70, N-((1s,3s)-3-((5-(thiazol-2-yl)-1H-pyrrolo[2,3-b]pyridin-4-yl)amino)cyclobutyl)propane-1-sulfonamide]
7 | ≤ 10 nM | 10 to 100 nM | 10 to 100 nM | 100 to 1000 nM | 100 to 1000 nM | 100 to 1000 nM | > 1000 nM | CCCS(=O)(=O)N[C@H]1C[C@@H](Nc2c(-c3nc(C(=O)NC)co3)cnc3[nH]ccc23)C1 [Example 71, N-methyl-2-(4-(((1s,3s)-3-(propylsulfonamido)cyclobutyl)amino)-1H-pyrrolo[2,3-b]pyridin-5-yl)oxazole-4-carboxamide]
8 | 10 to 100 nM | 10 to 100 nM | 10 to 100 nM | 100 to 1000 nM | 100 to 1000 nM | > 1000 nM | > 1000 nM | CCCS(=O)(=O)N[C@H]1C[C@@H](Nc2c(-c3nc(C(=O)NC)cs3)cnc3[nH]ccc23)C1 [Example 72, N-methyl-2-(4-(((1s,3s)-3-(propylsulfonamido)cyclobutyl)amino)-1H-pyrrolo[2,3-b]pyridin-5-yl)thiazole-4-carboxamide]
9 | ≤ 10 nM | ≤ 10 nM | ≤ 10 nM | 10 to 100 nM | 100 to 1000 nM | 100 to 1000 nM | 100 to 1000 nM | Cc1csc(-c2cnc3[nH]ccc3c2N[C@H]2C[C@@H](NS(=O)(=O)c3cccc(C#N)c3)C2)n1 [Example 73, 3-cyano-N-((1s,3s)-3-((5-(4-methylthiazol-2-yl)-1H-pyrrolo[2,3-b]pyridin-4-yl)amino)cyclobutyl)benzenesulfonamide]
10 | ≤ 10 nM | 10 to 100 nM | ≤ 10 nM | 10 to 100 nM | ≤ 100 nM | 100 to 1000 nM | 100 to 1000 nM | Cc1cnc(-c2cnc3[nH]ccc3c2N[C@H]2C[C@@H](NS(=O)(=O)c3cccc(C#N)c3)C2)s1 [Example 74, 3-cyano-N-((1s,3s)-3-((5-(5-methylthiazol-2-yl)-1H-pyrrolo[2,3-b]pyridin-4-yl)amino)cyclobutyl)benzenesulfonamide]
11 | 10 to 100 nM | 10 to 100 nM | 10 to 100 nM | 10 to 100 nM | 100 to 1000 nM | 100 to 1000 nM | > 1000 nM | CCCS(=O)(=O)N[C@H]1C[C@@H](Nc2c(-c3nnc(C)s3)cnc3[nH]ccc23)C1 [Example 76, N-((1s,3s)-3-((5-(5-methyl-1,3,4-thiadiazol-2-yl)-1H-pyrrolo[2,3-b]pyridin-4-yl)amino)cyclobutyl)propane-1-sulfonamide]
